Source: PubChem BioAssay AID1963986 (Molecular Pharmacology Branch, DTP, NCI, 2024)

Tested on: 171881-019-R-J1-PDC tumor spheroid viability
Test: Anticancer human tumor 171881-019-R-J1-PDC patient-derived invasive breast carcinoma cell line growth inhibition [PI3K]
Conditions: spheroids with HUVEC and MSC; for IC50: curve of first compound; for viability, T/C: stronger effect = lower value
Summary of the method: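 High-throughput combination screen: PI3K inhibitors crossed with targeted small molecules on complex spheroids of tumor cells, HUVEC and MSCs at 37 degrees C, 5% CO2. Top concentration was at or near clinical Cmax (otherwise 10 microM), with half-log decrements.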

[1] = second compound 0.0316 µM, first compound 0.0316 µM
[2] = second compound 0.0316 µM, first compound 0.1 µM
[3] = second compound 0.1 µM, first compound 0.0316 µM
[4] = second compound 0.1 µM, first compound 0.1 µM
[5] = second compound 0.316 µM, first compound 0.0316 µM
[6] = second compound 0.316 µM, first compound 0.1 µM
[7] = second compound 1 µM, first compound 0.0316 µM
[8] = second compound 1 µM, first compound 0.1 µM
[9] = second compound 3.16 µM, first compound 0.0316 µM
[10] = second compound 3.16 µM, first compound 0.1 µM
[11] = second compound 10 µM, first compound 0.0316 µM
[12] = second compound 10 µM, first compound 0.1 µM
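Further: spheroids exposed to compound for 7 days before viability read.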
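Wherever viability, T/C is given: 100% = DMSO vehicle-treated spheroids.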

C[C@@H](NC(=O)c1ncnc(N)c1Cl)c1ncc(C(=O)Nc2cc(C(F)(F)F)c(Cl)cn2)s1 + Cc1nc(NC(=O)N2CCCC2C(N)=O)sc1-c1ccnc(C(C)(C)C(F)(F)F)c1
IC50 (second compound 0.0316 µM): 6100 nM | IC50 (second compound 0.1 µM): 3000 nM | IC50 (second compound 0.316 µM): 555 nM | IC50 (second compound 1 µM): < 31.6 nM | IC50 (second compound 3.16 µM): < 31.6 nM | IC50 (second compound 10 µM): < 31.6 nM | viability, T/C [1]: 92.6% | viability, T/C [2]: 83.5% | viability, T/C (second compound 0.0316 µM, first compound 0.316 µM): 84.8% | viability, T/C (second compound 0.0316 µM, first compound 1 µM): 79.5% | viability, T/C (second compound 0.0316 µM, first compound 3.16 µM): 65% | viability, T/C (second compound 0.0316 µM, first compound 10 µM): 38.7% | viability, T/C [3]: 86.2% | viability, T/C [4]: 82.2% | viability, T/C (second compound 0.1 µM, first compound 0.316 µM): 77.9% | viability, T/C (second compound 0.1 µM, first compound 1 µM): 65.9% | viability, T/C (second compound 0.1 µM, first compound 3.16 µM): 49.2% | viability, T/C (second compound 0.1 µM, first compound 10 µM): 30.7% | viability, T/C [5]: 55.3% | viability, T/C [6]: 56.6% | viability, T/C (second compound 0.316 µM, first compound 0.316 µM): 51.8% | viability, T/C (second compound 0.316 µM, first compound 1 µM): 47.3% | viability, T/C (second compound 0.316 µM, first compound 3.16 µM): 31.9% | viability, T/C (second compound 0.316 µM, first compound 10 µM): 17.5% | viability, T/C [7]: 32.7% | viability, T/C [8]: 33.3% | viability, T/C (second compound 1 µM, first compound 0.316 µM): 31.1% | viability, T/C (second compound 1 µM, first compound 1 µM): 24.5% | viability, T/C (second compound 1 µM, first compound 3.16 µM): 17.3% | viability, T/C (second compound 1 µM, first compound 10 µM): 7.53% | viability, T/C [9]: 16.2% | viability, T/C [10]: 15.2% | viability, T/C (second compound 3.16 µM, first compound 0.316 µM): 12.5% | viability, T/C (second compound 3.16 µM, first compound 1 µM): 10.3% | viability, T/C (second compound 3.16 µM, first compound 3.16 µM): 5.29% | viability, T/C (second compound 3.16 µM, first compound 10 µM): 2.14% | viability, T/C [11]: 4.03% | viability, T/C [12]: 3.76% | viability, T/C (second compound 10 µM, first compound 0.316 µM): 3.28% | viability, T/C (second compound 10 µM, first compound 1 µM): 2.32% | viability, T/C (second compound 10 µM, first compound 3.16 µM): 1.29% | viability, T/C (second compound 10 µM, first compound 10 µM): 0.49%

Cn1ncnc1[C@H]1c2n[nH]c(=O)c3cc(F)cc(c23)N[C@@H]1c1ccc(F)cc1 + Cc1nc(NC(=O)N2CCCC2C(N)=O)sc1-c1ccnc(C(C)(C)C(F)(F)F)c1
IC50 (second compound 0.0316 µM): > 100 nM | IC50 (second compound 0.1 µM): > 100 nM | IC50 (second compound 0.316 µM): > 100 nM | IC50 (second compound 1 µM): < 0.316 nM | IC50 (second compound 3.16 µM): < 0.316 nM | IC50 (second compound 10 µM): < 0.316 nM | viability, T/C (second compound 0.0316 µM, first compound 0.000316 µM): 96.5% | viability, T/C (second compound 0.0316 µM, first compound 0.001 µM): 91% | viability, T/C (second compound 0.0316 µM, first compound 0.00316 µM): 84.8% | viability, T/C (second compound 0.0316 µM, first compound 0.01 µM): 88.8% | viability, T/C [1]: 86.3% | viability, T/C [2]: 79.8% | viability, T/C (second compound 0.1 µM, first compound 0.000316 µM): 86.7% | viability, T/C (second compound 0.1 µM, first compound 0.001 µM): 65.1% | viability, T/C (second compound 0.1 µM, first compound 0.00316 µM): 76.4% | viability, T/C (second compound 0.1 µM, first compound 0.01 µM): 73.1% | viability, T/C [3]: 74.1% | viability, T/C [4]: 66.6% | viability, T/C (second compound 0.316 µM, first compound 0.000316 µM): 50.2% | viability, T/C (second compound 0.316 µM, first compound 0.001 µM): 56.3% | viability, T/C (second compound 0.316 µM, first compound 0.00316 µM): 51.6% | viability, T/C (second compound 0.316 µM, first compound 0.01 µM): 56.4% | viability, T/C [5]: 55% | viability, T/C [6]: 46.6% | viability, T/C (second compound 1 µM, first compound 0.000316 µM): 32.8% | viability, T/C (second compound 1 µM, first compound 0.001 µM): 32.8% | viability, T/C (second compound 1 µM, first compound 0.00316 µM): 29.4% | viability, T/C (second compound 1 µM, first compound 0.01 µM): 31.6% | viability, T/C [7]: 29.6% | viability, T/C [8]: 27.4% | viability, T/C (second compound 3.16 µM, first compound 0.000316 µM): 13.4% | viability, T/C (second compound 3.16 µM, first compound 0.001 µM): 14% | viability, T/C (second compound 3.16 µM, first compound 0.00316 µM): 12.8% | viability, T/C (second compound 3.16 µM, first compound 0.01 µM): 13.4% | viability, T/C [9]: 13.3% | viability, T/C [10]: 12.1% | viability, T/C (second compound 10 µM, first compound 0.000316 µM): 3.72% | viability, T/C (second compound 10 µM, first compound 0.001 µM): 3.81% | viability, T/C (second compound 10 µM, first compound 0.00316 µM): 4.27% | viability, T/C (second compound 10 µM, first compound 0.01 µM): 3.81% | viability, T/C [11]: 3.35% | viability, T/C [12]: 2.96%
